Experimental data taken from article PMC6100415, “Hepatic Metabolism of Sakuranetin and Its Modulating Effects on Cytochrome P450s and UDP-Glucuronosyltransferases” (Molecules : A Journal of Synthetic Chemistry and Natural …, 2018).

System: hCAR-mediated CYP2B6 promoter
Assay: CAR-mediated CYP2B6 promoter luciferase assay in HepG2 cells
Assay type: cell-based, human
Conditions: pcDNA3-CAR-transfected HepG2 cells, 24 h; CITCO 500 nM
Description: HepG2 cells (American Tissue Culture Collection, Manassas, VA, USA) were maintained in Dulbecco’s modified Eagle’s essential medium (DMEM), containing 10% fetal bovine serum, 1% nonessential amino acids, 1% GlutaMAX®, and 1% antibiotics/antimycotics at 37 °C in a 5% CO2 atmosphere. The expression plasmid encoding the human constitutive androstane receptor (hCAR; pcDNA3-CAR) and the pGL3-CYP2B6 luciferase construct were kindly provided by Dr. Hongbing Wang (University of Maryland, College Park, MD, USA). The plasmid encoding the human pregnane X receptor (hPXR; pcDNA3-PXR) and the pGL3-CYP3A4 luciferase construct were obtained from Dr. Masahiko Negishi at the National Institutes of Health (Bethesda, MD, USA). Cells were seeded at a density of 1.5 × 10^5 cells/well into a 24-well plate. The next day, the cells were transfected with 0.25 μg of either pcDNA3-CAR or pcDNA3-PXR and 0.25 μg of a promoter luciferase plasmid (either pGL3-CYP2B6 or pGL3-CYP3A4) using Lipofectamine 2000 (Invitrogen, Carlsbad, CA, USA) according to the manufacturer’s instructions. […] The cells were harvested and luciferase activity was measured as described previously.

**Q.** For `Clc1ccc(-c2nc3sccn3c2C=NOCc2ccc(Cl)c(Cl)c2)cc1` [CITCO, reference compound], which “CYP2B6 luciferase activity increase” value is on record?
**A.** The value was 1.5 fold.
